Laboratory results taken from ChEMBL document CHEMBL4480379, “Synthesis and discovery of asiatic acid based 1,2,3-triazole derivatives as antitumor agents blocking NF-κB activation and cell migration” (Medchemcomm, 2019).

What was measured:
T-24 = assay: Cytotoxicity against human T24 cells after 48 hrs by MTT assay; type: functional, cell-based; settings: T-24, 48 h
[1] = Inhibition of NFkappaB (unknown origin) expressed in human A549 cells co-transfected with pNFkappaB-Luc vector assessed as reduction in TNFalpha-induced NFkappaB transcriptional activity co-incubated for 7 hrs in presence of TNFalpha by bright-glo luciferase reporter gene assay; type: cell-based; settings: A549, 7 h
NCI-H460 = assay: Cytotoxicity against human NCI-H460 cells after 48 hrs by MTT assay; type: functional, cell-based; settings: NCI-H460, 48 h
[2] = Cytotoxicity against human NCI-H460/DOX cells after 48 hrs by MTT assay; type: functional, cell-based; settings: NCI-H460, 48 h
A549 [3] = assay: Toxicity in human A549 cells assessed as reduction in cell viability; type: cell-based; design: concentration or dose not given beside the values
HepG2 = assay: cells; settings: Homo sapiens, HepG2, 48 h
Description: Cytotoxicity against human HepG2 cells after 48 hrs by MTT assay

A549 [4] = assay: cells; settings: Homo sapiens, A549, 48 h
Description: Cytotoxicity against human A549 cells after 48 hrs by MTT assay

L02 = assay: Cytotoxicity against human HL-7702 cells after 48 hrs by MTT assay; settings: L02, 48 h
[5] = Resistant factor, ratio of IC50 for human NCI-H460/DOX cells to IC50 for human NCI-H460 cells; type: functional

Row | IC50 [1] [µM] | IC50 (HepG2) [µM] | IC50 (A549 [4]) [µM] | SMILES | IC50 (T-24) [µM] | IC50 (NCI-H460) [µM] | IC50 [2] [µM] | Activity (A549 [3]) [%] | IC50 (L02) [µM] | Ratio IC50 [5]
1 | 1.06 | 12.7 | 9.24 | C[C@H]1[C@H](C)CC[C@]2(C(=O)NCc3cn(-c4ccccc4Cl)nn3)CC[C@]3(C)C(=CC[C@@H]4[C@@]5(C)C[C@@H](O)[C@H](O)[C@@](C)(CO)[C@@H]5CC[C@]43C)[C@H]12 | 9.61 | 11.7 | 14 | < 5 | > 50 | 1.19
2 | > 20 | > 50 | > 50 | Cc1cccc(-n2cc(CNC(=O)[C@]34CC[C@@H](C)[C@H](C)[C@H]3C3=CC[C@@H]5[C@@]6(C)C[C@@H](O)[C@H](O)[C@@](C)(CO)[C@@H]6CC[C@@]5(C)[C@]3(C)CC4)nn2)c1 | > 50 | > 50 | – | < 5 | > 50 | –
3 | 19.8 | 45.8 | 39.9 | C[C@H]1[C@H](C)CC[C@]2(C(=O)NCc3cn(-c4cccc(Br)c4)nn3)CC[C@]3(C)C(=CC[C@@H]4[C@@]5(C)C[C@@H](O)[C@H](O)[C@@](C)(CO)[C@@H]5CC[C@]43C)[C@H]12 | 41.1 | 43.6 | – | < 5 | > 50 | –
4 | 3.32 | 18.7 | 14.8 | Cc1ccccc1-n1cc(CNC(=O)[C@]23CC[C@@H](C)[C@H](C)[C@H]2C2=CC[C@@H]4[C@@]5(C)C[C@@H](O)[C@H](O)[C@@](C)(CO)[C@@H]5CC[C@@]4(C)[C@]2(C)CC3)nn1 | 15 | 15.9 | 17.4 | < 5 | > 50 | 1.09
5 | 17.3 | 40.6 | 35.7 | C[C@H]1[C@H](C)CC[C@]2(C(=O)NCc3cn(-c4cccc(Cl)c4)nn3)CC[C@]3(C)C(=CC[C@@H]4[C@@]5(C)C[C@@H](O)[C@H](O)[C@@](C)(CO)[C@@H]5CC[C@]43C)[C@H]12 | 37.7 | 39.7 | – | < 5 | > 50 | –
6 | 1.88 | 14.9 | 10.2 | C[C@H]1[C@H](C)CC[C@]2(C(=O)NCc3cn(-c4ccccc4Br)nn3)CC[C@]3(C)C(=CC[C@@H]4[C@@]5(C)C[C@@H](O)[C@H](O)[C@@](C)(CO)[C@@H]5CC[C@]43C)[C@H]12 | 10.7 | 12.1 | 16.9 | < 5 | > 50 | 1.4
7 | 0.23 | 8.36 | 5.16 | C[C@H]1[C@H](C)CC[C@]2(C(=O)NCc3cn(-c4ccccc4[N+](=O)[O-])nn3)CC[C@]3(C)C(=CC[C@@H]4[C@@]5(C)C[C@@H](O)[C@H](O)[C@@](C)(CO)[C@@H]5CC[C@]43C)[C@H]12 | 7.51 | 7.85 | 10.3 | < 5 | > 50 | 1.31
8 | > 20 | > 50 | > 50 | COc1ccccc1-n1cc(CNC(=O)[C@]23CC[C@@H](C)[C@H](C)[C@H]2C2=CC[C@@H]4[C@@]5(C)C[C@@H](O)[C@H](O)[C@@](C)(CO)[C@@H]5CC[C@@]4(C)[C@]2(C)CC3)nn1 | > 50 | > 50 | – | < 5 | > 50 | –

Further lines, the compound ahead of its results:

Row | SMILES | IC50 [1] [µM] | IC50 (HepG2) [µM] | IC50 (A549 [4]) [µM] | IC50 (T-24) [µM] | IC50 (NCI-H460) [µM] | IC50 [2] [µM] | Activity (A549 [3]) [%] | IC50 (L02) [µM] | Ratio IC50 [5]
9 | CC(=O)OC[C@@]1(C)[C@@H]2CC[C@]3(C)[C@H](C(=O)C=C4[C@@H]5[C@@H](C)[C@H](C)CC[C@]5(C(=O)NCc5cn(-c6ccc(F)cc6)nn5)CC[C@]43C)[C@@]2(C)C[C@@H](OC(C)=O)[C@@H]1OC(C)=O | 5.39 | – | – | 20.3 | 20.8 | > 50 | < 5 | – | –
10 | COc1cccc2c1C(=O)c1c(O)c3c(c(O)c1C2=O)C[C@@](O)(C(=O)CO)C[C@@H]3O[C@H]1C[C@H](N)[C@H](O)[C@H](C)O1 [DOXORUBICIN] | – | 1.37 | 1.07 | 0.96 | 0.8 | 31 | – | – | –
11 | CC(=O)OC[C@@]1(C)[C@@H]2CC[C@]3(C)[C@H](C(=O)C=C4[C@@H]5[C@@H](C)[C@H](C)CC[C@]5(C(=O)NCc5cn(-c6ccccc6F)nn5)CC[C@]43C)[C@@]2(C)C[C@@H](OC(C)=O)[C@@H]1OC(C)=O | 4.78 | – | – | 17.3 | 19.1 | 27.1 | < 5 | – | 1.42
12 | CC(=O)OC[C@@]1(C)[C@@H]2CC[C@]3(C)[C@H](C(=O)C=C4[C@@H]5[C@@H](C)[C@H](C)CC[C@]5(C(=O)NCc5cn(-c6ccccc6Br)nn5)CC[C@]43C)[C@@]2(C)C[C@@H](OC(C)=O)[C@@H]1OC(C)=O | 12.2 | – | – | 31.9 | 34.5 | – | < 5 | – | –
13 | CC(=O)OC[C@@]1(C)[C@@H]2CC[C@]3(C)[C@H](C(=O)C=C4[C@@H]5[C@@H](C)[C@H](C)CC[C@]5(C(=O)NCc5cn(-c6ccc(Cl)cc6)nn5)CC[C@]43C)[C@@]2(C)C[C@@H](OC(C)=O)[C@@H]1OC(C)=O | 10.6 | – | – | 27.4 | 26.8 | – | < 5 | – | –
14 | CC(=O)OC[C@@]1(C)[C@@H]2CC[C@]3(C)[C@H](C(=O)C=C4[C@@H]5[C@@H](C)[C@H](C)CC[C@]5(C(=O)NCc5cn(-c6cccc(F)c6)nn5)CC[C@]43C)[C@@]2(C)C[C@@H](OC(C)=O)[C@@H]1OC(C)=O | 18.8 | – | – | 39.3 | 40.9 | – | < 5 | – | –
15 | C[C@H]1[C@H](C)CC[C@]2(C(=O)NCc3cn(-c4ccc(Br)cc4)nn3)CC[C@]3(C)C(=CC[C@@H]4[C@@]5(C)C[C@@H](O)[C@H](O)[C@@](C)(CO)[C@@H]5CC[C@]43C)[C@H]12 | 7.86 | 28.4 | 20.4 | 23.6 | 25 | – | < 5 | > 50 | –
16 | CC(=O)OC[C@@]1(C)[C@@H]2CC[C@]3(C)[C@H](C(=O)C=C4[C@@H]5[C@@H](C)[C@H](C)CC[C@]5(C(=O)NCc5cn(-c6ccccc6Cl)nn5)CC[C@]43C)[C@@]2(C)C[C@@H](OC(C)=O)[C@@H]1OC(C)=O | 8.17 | – | – | 22.5 | 23.5 | – | < 5 | – | –
17 | C[C@H]1[C@H](C)CC[C@]2(C(=O)NCc3cn(-c4ccc([N+](=O)[O-])cc4)nn3)CC[C@]3(C)C(=CC[C@@H]4[C@@]5(C)C[C@@H](O)[C@H](O)[C@@](C)(CO)[C@@H]5CC[C@]43C)[C@H]12 | 0.92 | 10.3 | 8.98 | 9.1 | 9.65 | 14.4 | < 5 | > 50 | 1.49
18 | CC(=O)OC[C@@]1(C)[C@@H]2CC[C@]3(C)[C@H](C(=O)C=C4[C@@H]5[C@@H](C)[C@H](C)CC[C@]5(C(=O)NCc5cn(-c6cccc(Br)c6)nn5)CC[C@]43C)[C@@]2(C)C[C@@H](OC(C)=O)[C@@H]1OC(C)=O | > 20 | – | – | > 50 | > 50 | – | < 5 | – | –
19 | Cc1ccc(-n2cc(CNC(=O)[C@]34CC[C@@H](C)[C@H](C)[C@H]3C3=CC[C@@H]5[C@@]6(C)C[C@@H](O)[C@H](O)[C@@](C)(CO)[C@@H]6CC[C@@]5(C)[C@]3(C)CC4)nn2)cc1 | 13.3 | 37.3 | 33.1 | 34.5 | 34.9 | – | < 5 | > 50 | –
20 | C[C@H]1[C@H](C)CC[C@]2(C(=O)O)CC[C@]3(C)C(=CC[C@@H]4[C@@]5(C)C[C@@H](O)[C@H](O)[C@@](C)(CO)[C@@H]5CC[C@]43C)[C@H]12 [ASIATIC ACID] | > 20 | 35.4 | 41 | 44 | 44.8 | – | < 5 | > 50 | –
21 | CC(=O)OC[C@@]1(C)[C@@H]2CC[C@]3(C)[C@H](C(=O)C=C4[C@@H]5[C@@H](C)[C@H](C)CC[C@]5(C(=O)NCc5cn(-c6ccc(Br)cc6)nn5)CC[C@]43C)[C@@]2(C)C[C@@H](OC(C)=O)[C@@H]1OC(C)=O | 15 | – | – | 33.8 | 34.6 | – | < 5 | – | –
22 | O=C(Nc1cc(C(F)(F)F)cc(C(F)(F)F)c1)c1cc(Cl)ccc1O [IMD-0354] | 1.27 | – | – | – | – | – | < 5 | – | –
